This assay relates to T1, SCD1.
T1 construct: IC50 assay and protein source not described; activity elsewhere measured in mouse OP9 and AML12 cells (native enzyme)
As to the kind of experiment: SCD1 inhibition, assay not described. The class given is cell-based. The conditions noted are these: assay system not stated.

Structures are written as SMILES.

In turn, `CNC(=O)c1cccc(NC(=O)N2CCC(Oc3ccccc3Cl)CC2)c1` [A939572] had an IC50 of 2.8 µM. The result for `c1cc(-c2nc3ccc(OCCCN4CCCC4)cc3o2)ccc1OCCCN1CCCC1` [E6446] reads 0.98 µM.

(Values after paper PMC10544195, “Identification of novel SCD1 inhibitor alleviates nonalcoholic fatty liver disease: critical role of liver-adipose axis” (Cell Communication and Signaling : CCS, 2023).)
